Assay results: patent US20240150301A1, “METHODS OF MODULATING ANDROGEN RECEPTOR CONDENSATES” (ETERN BIOPHARMA (SHANGHAI) CO., LTD., priority 2021, published 2024)
“Also recorded” adds a separate entry of the source.

How the values were obtained:
22Rv1 cells = assay: Cell proliferation assay (CellTiter-Glo), 22Rv1; format: cell-based; conditions: Homo sapiens, 22Rv1, 96 h; 4 days; read-out: 22Rv1 IC50 AR-positive; AR-V7 positive (cell proliferation)
Description: (§1) To evaluate the effect of exemplary compounds on proliferation of AR/AR-V7-dependent prostate cancer cells, cell viability assay was performed in LNCaP (AR-positive), 22Rv1 (AR-positive; AR-V7 positive), VCaP (AR-positive; AR-V7 positive), and DU145 (AR-negative) cells, respectively.
(§2) LNCaP cells were seeded in charcoal stripped FBS/phenol red-free RPMI medium in 96-well plates for 24 h before pretreating for 1 h with test compounds prior to addition of 0.2 nM DHT for 4 days. 22Rv1 or VCaP cells were cultured in charcoal stripped FBS/phenol red-free RPMI medium for 24 h before addition of test compounds for 4 days. DU145 cells were seeded in complete medium for 24 h before addition of test compounds for 4 days. Cell proliferation was measured with CellTiter-Glo® Luminescent Cell Viability Assay (Promega). In LNCaP cells, DHT-dependent cell growth is calculated by measuring the difference between vehicle control (DMSO) cells treated with or without 0.2 nM DHT. The IC50 values were determined using the four parameter fit via GraphPad Prism graphing software.

LNCaP cells = assay: Cell proliferation assay (CellTiter-Glo), LNCaP; format: cell-based; conditions: Homo sapiens, 96 h, 0.2 nM DHT, 4 days, read-out: LNCaP IC50 AR-positive (cell proliferation)
Description: as §1, §2

AR = target: T1, AR (Homo sapiens, UniProt P10275); assay: ARE-luciferase reporter assay in LNCaP cells (DHT-induced); format: cell-based; conditions: 1 nM DHT, 24 h, normalized to cell viability, read-out: LNCaP ARE-luc IC50
T1 sequence (P10275 1-920 T878A): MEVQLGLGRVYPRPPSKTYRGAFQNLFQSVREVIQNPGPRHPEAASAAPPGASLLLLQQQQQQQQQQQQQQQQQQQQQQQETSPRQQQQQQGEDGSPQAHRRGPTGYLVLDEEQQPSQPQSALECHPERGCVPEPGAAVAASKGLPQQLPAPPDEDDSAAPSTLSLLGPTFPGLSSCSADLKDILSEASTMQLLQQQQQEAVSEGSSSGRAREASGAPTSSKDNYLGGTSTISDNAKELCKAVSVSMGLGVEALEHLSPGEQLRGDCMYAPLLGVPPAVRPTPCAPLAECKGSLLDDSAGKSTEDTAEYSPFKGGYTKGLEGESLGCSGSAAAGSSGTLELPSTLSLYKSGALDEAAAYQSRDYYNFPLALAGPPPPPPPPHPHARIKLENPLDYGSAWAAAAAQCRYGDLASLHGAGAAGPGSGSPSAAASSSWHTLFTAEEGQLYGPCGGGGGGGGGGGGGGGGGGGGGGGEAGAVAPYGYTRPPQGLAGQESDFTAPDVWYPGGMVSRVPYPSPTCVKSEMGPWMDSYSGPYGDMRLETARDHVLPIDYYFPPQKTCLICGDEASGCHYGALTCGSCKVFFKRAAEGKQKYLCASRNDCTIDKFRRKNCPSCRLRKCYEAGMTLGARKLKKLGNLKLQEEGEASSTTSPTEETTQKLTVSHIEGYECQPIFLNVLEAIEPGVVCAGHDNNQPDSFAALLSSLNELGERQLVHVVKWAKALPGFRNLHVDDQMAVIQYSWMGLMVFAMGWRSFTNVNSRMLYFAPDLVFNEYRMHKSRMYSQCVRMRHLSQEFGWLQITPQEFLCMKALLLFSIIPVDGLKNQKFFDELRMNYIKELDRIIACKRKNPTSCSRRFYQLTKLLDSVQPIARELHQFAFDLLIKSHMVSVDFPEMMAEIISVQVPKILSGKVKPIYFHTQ
Description: (§3) The ARE-luciferase reporter plasmid contains functional AREs (androgen response elements) to which AR binds in response to androgen to induce luciferase activity. LNCaP (Cobioer) cells were transiently transfected with the ARE-luciferase reporter in charcoal stripped FBS/phenol red-free RPMI medium prior to treatment for 24 hours. Then DMSO or test compounds with serial diluted concentrations were added one hour prior to the addition of DHT(1 nM). After 24 h of incubation with DHT, cells were lysed and luciferase activity was assayed using the ONE-Glo™ Luciferase Assay System (Promega) and measured using EnVision Multimode Plate Reader, according to manufacturer's instructions. Values were normalized to cell viability determined by CellTiter-Glo® Luminescent Cell Viability Assay Kit (Promega). […] GraphPad Prism graphing software was used to calculate IC50 values.

[1] = system: AR or AR-V7 downstream target genes; assay: AR/AR-V7 target gene qPCR assay in 22Rv1 cells; format: cell-based, human; conditions: 22Rv1, 48 h, RT-qPCR
Description: To evaluate the effect of exemplary compounds on mRNA expression of AR or AR-V7 downstream target genes, real-time quantitative PCR measurements were performed in prostate cancer cell line 22Rv1 expressing both AR and AR-V7.
22Rv1 cells were cultured in charcoal stripped FBS/phenol red-free RPMI medium for 24 h, and then treated with DMSO or test compounds for additional 48 h prior to RT-qPCR. Briefly, RNA was isolated from cells using RNeasy Mini Kit (Qiagen) following the manufacturer's protocol. RNA was reverse transcribed and subjected to qPCR using PowerUp™ SYBR™ Green Master Mix (Applied Biosystems). The relative quantity of the target genes was calculated using the ΔΔCt method by comparing Ct of the target genes and mean Ct of the housekeeping gene GAPDH.

DU145 cells = assay: Cell proliferation assay (CellTiter-Glo), DU145; format: cell-based; conditions: Homo sapiens, DU-145, 96 h; 4 days; read-out: DU145 IC50 AR-negative (cell proliferation)
Description: as §1, §2

AR V7 [2] = target: T2, AR V7 (Homo sapiens, UniProt P10275); assay: ARE-luciferase reporter assay in HEK293T cells cotransfected with AR-V7; format: cell-based; set-up: host or cells: HEK293T; conditions: HEK293T cotransfected with AR-V7, hormone-starved, 24 h; read-out: HEK293T(V7) ARE-luc IC50
T2 sequence (P10275 1-644 isoform P10275-3): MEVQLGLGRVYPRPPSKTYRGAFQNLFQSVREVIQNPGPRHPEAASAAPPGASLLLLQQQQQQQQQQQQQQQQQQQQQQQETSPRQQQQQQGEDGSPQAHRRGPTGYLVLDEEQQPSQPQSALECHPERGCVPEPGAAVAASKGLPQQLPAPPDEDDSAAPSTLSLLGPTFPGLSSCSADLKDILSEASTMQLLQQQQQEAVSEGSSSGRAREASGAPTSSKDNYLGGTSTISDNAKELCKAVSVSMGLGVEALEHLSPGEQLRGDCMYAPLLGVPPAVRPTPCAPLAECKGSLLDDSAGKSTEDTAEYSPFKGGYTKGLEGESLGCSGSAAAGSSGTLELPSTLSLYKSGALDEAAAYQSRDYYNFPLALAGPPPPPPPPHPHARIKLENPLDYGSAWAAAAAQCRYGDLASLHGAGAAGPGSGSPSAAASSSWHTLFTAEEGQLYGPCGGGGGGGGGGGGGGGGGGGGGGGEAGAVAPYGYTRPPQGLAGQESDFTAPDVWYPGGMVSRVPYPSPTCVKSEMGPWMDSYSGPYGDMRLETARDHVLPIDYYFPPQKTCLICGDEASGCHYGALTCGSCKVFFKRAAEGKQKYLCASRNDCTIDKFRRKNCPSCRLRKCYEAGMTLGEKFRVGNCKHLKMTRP
Description: as §3
(§4) To evaluate the transcriptional activity of AR-V7, HEK293T(Cobioer) cells were transiently cotransfected with an expression vector for AR-V7 and the ARE-luciferase reporter in hormone-starved conditions. For 22Rv1(Cobioer) prostate cancer cell line, which expresses endogenous AR-V7, ARE-luciferase reporter was transiently transfected in hormone-starved conditions. 24 h after transfection, DMSO or test compounds with serial diluted concentrations were added for additional 24 h incubation. Reporter activity was detected and normalized by cell viability as described above. Treatments were normalized to DMSO control activity, and IC50 values were further determined via GraphPad Prism graphing software.

AR V7 [3] = target: T2, AR V7; assay: ARE-luciferase reporter assay in 22Rv1 cells (endogenous AR-V7); format: cell-based; set-up: 22Rv1(Cobioer) prostate cancer cell line, which expresses endogenous AR-V7; host or cells: 22Rv1; conditions: 22Rv1, hormone-starved, 24 h; read-out: 22Rv1 ARE-luc IC50
Description: as §3, §4

VCaP cells = assay: Cell proliferation assay (CellTiter-Glo), VCaP; format: cell-based; conditions: Homo sapiens, 96 h, 4 days, read-out: VCaP IC50 AR-positive, AR-V7 positive (cell proliferation)
Description: as §1, §2

[4] = system: AF-1 recombinant protein (human AR-NTD); assay: AF-1 STD NMR binding assay; conditions: 25 μM AF-1, 250 μM compound
Description: Binding of the exemplary compounds to human AR-NTD was performed using STD […] Nuclear Magnetic Resonance (STD NMR) analysis with purified AF-1 recombinant protein.
Binding of the exemplary compounds to human AR-NTD was performed using STD […] Nuclear Magnetic Resonance (STD NMR) analysis with purified Tau-5AF-1 recombinant protein. All NMR spectroscopy experiments were performed on a Bruker Avance III 600 MHz spectrometer. NMR samples contain 25 μM AF-1 and 250 μM compound, and were diluted by PBS (pH 7.4, 60% D20) buffer to 500 μL. For the STD experiments, the standard Bruker stddiffgp19.3 pulse sequence was used with a saturation time of 2 s and a spectral width of 16 ppm with 128 scans. The on-resonance frequency was set to −0.4 ppm, while the off-resonance frequency was set to 33 ppm. Appropriate blank experiments, in the absence of protein or compound, were performed to test the lack of direct saturation to the compound protons.

Row | IC50 (22Rv1 cells) | IC50 (LNCaP cells) | IC50 (DU145 cells) | IC50 (AR V7 [2]) | IC50 (AR V7 [3]) | IC50 (VCaP cells) | Compound | IC50 (AR) | mRNA expression of target genes of either AR or AR-V7 [1] | binding to AF-1 (STD difference spectrum) [4]
1 | 2750 nM | 520 nM | > 20000 nM | 2300 nM | 4400 nM | 8810 nM | CC(C)(c1ccc(OCc2ccnc(N=S3(=O)CCCC3)n2)cc1)c1cc(Cl)c(OCCCl)c(C#N)c1 [Compound 2, 3-chloro-2-(2-chloroethoxy)-5-(2-(4-((2-((1-oxidotetrahydro-1λ^6-thiophen-1-ylidene)amino)pyrimidin-4-yl)methoxy)phenyl)propan-2-yl) benzonitrile] | 2820 nM | inhibited mRNA expression | –
2 | – | – | – | – | – | – | CC(C)(c1ccc(OCc2ccnc(N=S3(=O)CCNCC3)n2)cc1)c1cc(Cl)c(OCCO)c(C#N)c1 [Compound 62, 3-chloro-2-(2-hydroxyethoxy)-5-(2-(4-((2-((1-oxido-1λ^6-thiomorpholin-1-ylidene)amino)pyrimidin-4-yl)methoxy)phenyl)propan-2-yl)benzonitrile] | – | – | confirmed the binding; also recorded: binds to AF-1
